Laboratory results as given in paper PMC4150255 (Journal of medicinal chemistry, 2012).

Test system: LNCaP C-81 cells
Assay: cell proliferation assay
Type: cell-based, Human
Conditions: regular culture medium, 3 days treatment

| Structure (SMILES) | inhibition of proliferation |
| --- | --- |
| O=C(c1ccc(O)c(NC(=O)c2cccc3ccccc23)c1)c1ccc(O)c(NC(=O)c2cccc3ccccc23)c1 [Compound A36] | about 32% |
| O=C(NN=C1C=CC(=NOS(=O)(=O)c2ccccc2)C=C1)c1cc2ccccc2cc1O [Compound A9] | up to 70% |
